Test results from publication PMC3478417 (Nuclear medicine and biology, 2012).

How the values were obtained:
[1] = PET imaging of [11C]rhodamine-123 in rats; format: in vivo, rat
[2] = cited from earlier work
P-gp = details: mouse, not told, iv; cited from earlier work
[3] = mouse; cited from earlier work

Structure (SMILES): CN/C(=N/CCSCc1nc[nH]c1C)NC#N [cimetidine]
- inhibition of OCT in kidney in vivo ([1]; 30 mg/kg i.v., 30 min before radiotracer, rats): effective inhibitor of OCT in vivo

Structure (SMILES): CNC(=O)C(CCN1CCC(O)(c2ccc(Cl)cc2)CC1)(c1ccccc1)c1ccccc1 [dLop, desmethyl-loperamide]
- logD [2]: 2.60
- pKa [2]: 7.2–7.3

Structure (SMILES): COC(=O)c1ccccc1-c1c2ccc(=N)cc-2oc2cc(N)ccc12.Cl [rhodamine-123]
- brain concentration, P-gp knockout (mdr1a(−/−)) versus wild-type mice (P-gp): about 4 fold
- peak radioactivity in liver (PET) ([1]; DCPQ-pretreated versus untreated rats): greater peak radioactivity in liver
- Plasma free fraction [3]: 0.23 ± 0.04
